Experimental data from patent US20230285371A1 (THE SECOND XIANGYA HOSPITAL OF CENTRAL SOUTH UNIVERSITY, priority 2020, published 2023).
Where “and” joins values, the source holds several entries; their conditions need not be identical. Equal entries are not always repeated. Marks after values point to notes of the source that are not given here.

Assays:
Naive CD4+ T cells = test: Cytotoxicity to T cells: cell count after 48 hours; assay type: cell-based, C57BL/6J mice
[1] = tested on: female NOD mice (spontaneous type 1 diabetes); test: Prevention of spontaneous type 1 diabetes in NOD mice; assay type: in vivo; conditions: spontaneous T1D
Excerpt: (§1) I. Materials and Methods • 1. Mice: The most widely used spontaneous type 1 diabetes mouse model for the study of type 1 diabetes—NOD mice were selected. Since the incidence rate of spontaneous type 1 diabetes in female NOD mice is much higher than that in male mice, female NOD mice were used for experiments in the present invention. The female NOD mice of the present invention were purchased from Shanghai Model Organisms Center, Inc. • 2. Preparation of medicine: Carboxymethylcellulose (CMC) was used as the solvent. […] Injection of cyclophosphamide: 300 mg/kg body weight of cyclophosphamide was injected into NOD mice so as to rapidly induce the onset of type 1 diabetes. • 5. Measurement of blood sugar: About 1 mm of the tail tip of the mice was cut off, the first drop of blood was wiped off with gauze, then the second drop of blood flew out naturally, which was drawn with a blood sugar test strip, and the reading was recorded. It can be diagnosed type 1 diabetes when two consecutive blood sugar readings were both >250 mg/dl. • 6. […] After 4 weeks of gavage, each mouse was injected with cyclophosphamide to induce the onset of type 1 diabetes, and the incidence rate of type 1 diabetes in the mice was observed and counted.

[2] = tested on: differentiation of Th1 cells induced by IL-12 (Naive CD4+ T cells); test: In vitro inhibition assay: IL-12-induced Th1 differentiation, flow cytometry; assay type: cell-based, C57BL/6J mice; conditions: for Th1 (%) Average / Th1 (%): IL-12, 48 hours; for Th1 (%) Average: average of 3 wells; for Th1 (%): individual parallel wells
Description: C57BL/6J mice were sacrificed, the spleen was taken and disrupted in PBS containing 2% fetal bovine serum (FBS). The cell suspension was filtered through a 70 μm nylon filter to remove tissue debris. The obtained cell suspension was centrifuged at 300 g for 10 min, and the cells were resuspended in PBS containing 2% fetal bovine serum (FBS) to maintain a cell concentration of 1×10^8 nucleated cells/mL. Naive CD4+ T cells were extracted with the EasySep™ Mouse Naive CD4+ T Cell Isolation Kit ([…] Technologies), and the extracted Naive CD4+ T cells were cultured in RPMI-1640 medium (Gibco) containing 10% fetal bovine serum (Gibco) and 1% penicillin/streptomycin (Gibco).
The cells were collected after 48 hours, and subjected to flow cytometry to detect the proportion of Th1 cells.

[3] = tested on: CD4+ T cell subsets (Th1, Th2, Th17 and Treg) in the pancreas; test: CD4+ T cell subsets in pancreas of NOD mice, flow cytometry; assay type: in vivo
Excerpt: (§2) From the age of 10 weeks, the mice were gavaged for 4 weeks, and injected with cyclophosphamide after the gavage for two weeks to induce the onset of the disease.

NOD mice (insulitis) = conditions: gavage once a day for 4 weeks from 8 weeks of age, nondiabetic mice, HE staining
STAT4 and p-STAT4 = test: STAT4 phosphorylation in IL-12-treated Naive CD4+ T cells, western blot; assay type: cell-based, C57BL/6J mice; conditions: IL-12, 48 hours
Description: The cells were collected after 48 hours to extract proteins for western blot (WB) to detect the protein levels of STAT4 and p-STAT4.

[4] = tested on: Th1 cell marker genes (Tbet and IFNγ) and pro-inflammatory cytokines (IL-1β, IL-6 and TNF-α) in the pancreas; test: Gene expression in pancreas of NOD mice, RT-PCR; assay type: in vivo
Excerpt: as §2

[5] = tested on: female NOD mice (type 1 diabetes induced by cyclophosphamide); test: Prevention of cyclophosphamide-induced type 1 diabetes in NOD mice; assay type: in vivo; conditions: cyclophosphamide-induced T1D
Excerpt: as §1

[6] = Sorafenib group vs solvent group
[7] = gavage 4 weeks, cyclophosphamide after 2 weeks, individual values
[8] = relative to vehicle, individual mice

Substance: Sorafenib
- Th0 (×10^4) Average (Naive CD4+ T cells; Sorafenib 1 μg/ml, 0 μg/ml control 9.47): 9.33 ×10^4
- Th0 (×10^4) Average (Naive CD4+ T cells; Sorafenib 2 μg/ml): 8.1 ×10^4
- Th0 (×10^4) Average (Naive CD4+ T cells; Sorafenib 4 μg/ml): 8 ×10^4
- Survival rate (%) ([1]; 10 mg/kg gavage once a day for 12 weeks, day 98): 91.30%
- Survival rate (%) ([1]; 10 mg/kg gavage once a day for 12 weeks, day 119): 73.91%
- Survival rate (%) ([1]; 10 mg/kg gavage once a day for 12 weeks, day 140): 65.22%
- Survival rate (%) ([1]; 10 mg/kg gavage once a day for 12 weeks, day 154): 60.87%
- Survival rate (%) ([1]; 10 mg/kg gavage once a day for 12 weeks, day 168): 52.17%
- Survival rate (%) ([1]; 10 mg/kg gavage once a day for 12 weeks, day 224, P<0.1 vs vehicle (25)): 52.17^+ %
- Survival rate (%) ([1]; 10 mg/kg gavage once a day from 8 weeks of age for 12 weeks, n=23, day 0): 100%
- incidence rate of type 1 diabetes ([1]; at 32 weeks of age, CMC group 75%): 48%
- effect on IL-12-induced Th1 differentiation ([2]; 0, 1, 2, 4 μg/ml, 48 hours): inhibit IL-12-induced Th1 differentiation in a dose-dependent manner
- Th1 (%) Average ([2]; Sorafenib 1 μg/ml, 0 μg/ml control 85.27): 80.43%
- Th1 (%) ([2]; Sorafenib 1 μg/ml): 77.9% and 76% and 87.4%
- Th1 (%) Average ([2]; Sorafenib 2 μg/ml, P<0.01 vs 0 μg/ml): 68.53** %
- Th1 (%) ([2]; Sorafenib 2 μg/ml): 67.8% and 68.5% and 69.3%
- Th1 (%) Average ([2]; Sorafenib 4 μg/ml, P<0.001 vs 0 μg/ml): 15.66*** %
- Th1 (%) ([2]; Sorafenib 4 μg/ml): 24.9% and 12.9% and 9.17%
- proportion of Th1 cells in the pancreas [3, 6]: significantly reduced
- proportions of other T cell subsets in the pancreas [3, 6]: remained unchanged
- Th1 (%) in pancreas ([3]; gavage 4 weeks from 10 weeks of age, cyclophosphamide after 2 weeks, individual values): 6.63% and 3.58%
- Th1 (%) in pancreas, Average ([3]; gavage 4 weeks, cyclophosphamide after 2 weeks, P<0.05 vs vehicle (21.2)): 5.11* %
- Th2 (%) in pancreas [3, 7]: 9.75% and 12.9% and 7.91%
- Th17 (%) in pancreas [3, 7]: 3.28% and 0.68% and 1.19%
- Tregs (%) in pancreas [3, 7]: 4.6% and 4.31% and 2.25% and 4.37%
- Th17 (%) in pancreas, Average ([3]; gavage 4 weeks, cyclophosphamide after 2 weeks, vehicle 1.31): 1.72%
- Tregs (%) in pancreas, Average ([3]; gavage 4 weeks, cyclophosphamide after 2 weeks, vehicle 4.345): 3.88%
- Th2 (%) in pancreas, Average ([3]; gavage 4 weeks, cyclophosphamide after 2 weeks, vehicle 9.45): 10.19%
- insulitis compared with the CMC group (NOD mice (insulitis)): significantly improved
- effect on phosphorylation of STAT4 (STAT4 and p-STAT4): can inhibit the phosphorylation of STAT4
- IFNγ gene expression level in pancreas, Average ([4]; P<0.05 vs vehicle (1)): 0.27*
- Il-1β gene expression level in pancreas, Average ([4]; P<0.05 vs vehicle (1)): 0.37*
- TNFα gene expression level in pancreas, Average ([4]; P<0.05 vs vehicle (1)): 0.27*
- Tbet gene expression level in pancreas, Average ([4]; P<0.1 vs vehicle (1.04)): 0.44^+
- gene expression levels of Th1 cell marker genes (Tbet and IFNγ) and pro-inflammatory cytokines (IL-1β, IL-6 and TNF-α) in the pancreas [4, 6]: significantly reduced
- IFNγ gene expression level in pancreas [4, 8]: 0.16 and 0.07 and 0.58
- IL-6 gene expression level in pancreas [4, 8]: 0.64 and 0.12
- Il-1β gene expression level in pancreas [4, 8]: 0.48 and 0.18 and 0.46
- TNFα gene expression level in pancreas [4, 8]: 0.18 and 0.07 and 0.55
- Tbet gene expression level in pancreas [4, 8]: 0.27 and 0.2 and 0.86
- IL-6 gene expression level in pancreas, Average ([4]; vehicle 1): 0.38
- Survival rate (%) ([5]; 10 mg/kg gavage for 7 weeks, day 105): 94.12%
- Survival rate (%) ([5]; 10 mg/kg gavage for 7 weeks, day 112): 88.24%
- Survival rate (%) ([5]; 10 mg/kg gavage for 7 weeks, day 119): 82.35%
- Survival rate (%) ([5]; 10 mg/kg gavage for 7 weeks, day 126): 76.47%
- Survival rate (%) ([5]; 10 mg/kg gavage for 7 weeks, day 140, P<0.05 vs vehicle (35.71)): 76.47* %
- Survival rate (%) ([5]; 10 mg/kg gavage once a day from 8 weeks of age for 7 weeks, cyclophosphamide 300 mg/kg after 4 weeks, n=17, day 0): 100%
- preventive effect still existed after the gavage was stopped, lasted to ([5]; gavage stopped after 7 weeks): 20 weeks
- incidence rate of type 1 diabetes ([5]; more than half of the CMC group developed T1D): 24%
